From patent US20150182667A1, “Composition with Biofilm Dispersal Agents” (Vanderbilt University, priority 2012, published 2015)
Values after ≈ are worked out from the molar mass of the structure shown. Like-named read-outs stand apart in the source and are kept apart here.

Legend:
[1] = system: biofilm derived P. aeruginosa clinical strains (18189, 418); assay: Biofilm susceptibility, Calgary Biofilm device (MBEC plates): MBIC and viable CFU; assay type: cell-based, Pseudomonas aeruginosa; details: * = with 5 mM D-AA; for Biofilm (MBIC) 418: P. aeruginosa 418 biofilm; for Biofilm (MBIC) 18189: P. aeruginosa 18189 biofilm
Procedure: Biofilm susceptibility to antimicrobial agents in the presence and absence of D-AA was determined using the Calgary Biofilm device. Briefly, biofilms from overnight cultures were established as above on individual pegs of the minimum biofilm eradication concentration (MBEC) plates (Innovotech, Canada) with agitation for 48 h at 37° C. Following incubation, the lid with pegs was removed from the incubation plate, washed by re-suspending pegs into plate with wells containing 200 μl of 1×PBS, then placed into a 96-well challenge plate containing pre-diluted antibiotics with or without an […] for an additional 24 h at 37° C. Following challenge plates were washed, and the attached viable cells on PEGs within the biofilm were determined by plating serial dilutions onto blood agar plates (Remel). Corresponding minimal biofilm inhibitory concentration (MBIC) was also determined by measuring the optical density in individual wells of the challenge plate at 600 nm. The lowest concentration of antibiotic for which an optical density of <0.100 was recorded as the MBIC. For each antibiotic, the MBIC was determined in the presence or absence of a mixture of D-AA (D-Phenylalanine, D-Methionine, and D-Tryptophan) at an equimolar concentration of 5 mM. Three independent experiments were performed for each of these assays, with a minimum of 3 replicates.

[2] = system: planktonic P. aeruginosa clinical strains (18189, 418); assay: MIC by CLSI broth microdilution, planktonic bacteria; assay type: cell-based, Pseudomonas aeruginosa; details: * = with 5 mM D-AA; for MIC: Pseudomonas aeruginosa
Procedure: Overnight cultures of bacterial strains were diluted to a final concentration of 5×10^5 CFU/ml in MHB-II. The resulting bacterial suspension was aliquoted (100 μL) into polystyrene round-bottom 96-well plates containing 100 μL of a 2× concentration of a previously serially diluted (1:2) antibiotic. Each antimicrobial tested was serially diluted 10 times. Following the addition of bacteria, the microtiter plate was covered and was incubated under stationary conditions at 37° C. in the presence of 1× antibiotics. […] MICs of antibiotics were determined in triplicate according to the Clinical and Laboratory Standards Institute (CLSI) broth microdilution as described by the performance standards for antimicrobial susceptibility testing (M100-S22, January 2012).

[3] = system: P. aeruginosa clinical isolate biofilms; assay: Biofilm dispersal and prevention, crystal violet 96-well assay (Example 1); assay type: cell-based, Pseudomonas aeruginosa; details: 5 mM; for biofilm dispersal against panel of clinical isolates (biofilm biomass OD570): P. aeruginosa clinical isolates, FIGS. 3A, 3C; for biofilm dispersal in pre-screening of eight D-AAs: pre-formed P. aeruginosa biofilms, FIG. 1
Procedure: (§1) Biofilm formation was performed under static conditions in polystyrene 96-well plates (Corning, Inc., Corning, N.Y.). Briefly, overnight bacterial cultures were diluted to an OD600 of 0.1 in CA-MHB and 10 μL was added to individual wells filled with 190 μl of media and incubated at 37° C. for 48 h without shaking for biofilm growth. Following incubation, culture media was removed and 200 μL media containing individual D-AA at concentrations of 5 mM-1 nM was added. Plates were incubated for an additional 24 h at 37° C. After treatment, plates were gently washed with 1× phosphate buffered saline (PBS; pH 7.4) to remove non-adherent bacteria. Biofilms (i.e. attached cells) were then stained with 0.1% (w/v) crystal violet for 10 min, washed, followed by solubilization of crystal violet with 33% (v/v) acetic acid for 10 min. Biofilm biomass was determined by measuring the absorbance at 570 nm using a microtiter plate reader. For assays measuring the ability of D-AA to block biofilm formation, cells were grown under biofilm conditions as above in the presence of media containing D-AA. Three independent experiments with a minimum of 4 replicates were performed for each experimental assay. Representative images of the plates of CV stained biofilms following treatment with D-AA, prior to solubilization, were taken using a digital camera.

[4] = system: human dermal fibroblasts; assay: CellTiter-Fluor cell viability assay; assay type: cell-based
Procedure: (§2) To observe the cellular viability of PUR/D-AA composites, human dermal fibroblasts and human osteoblasts (PromoCell) were maintained in Dulbecco's Modified Eagle Medium (DMEM; Invitrogen) supplemented with 10% Fetal Bovine Serum (FBS) and 1× penicillin/streptomycin. Human epidermal keratinocytes (HEK-001; ATCC CRL-2404) were maintained in Keratinocyte-serum free media (GIBCO) supplemented with 5 ng/mL human recombinant EGF and 2 mM L-glutamine. All cell lines were cultured at 37° C. in 5% CO2. Prior to each assay cells were seeded at 100% confluence in black-clear bottom 96-well plates. After 24 h, cells were exposed to media containing D-AA, 50 mM-1 nM, and incubated for 24-48 h at 37° C. in 5% CO2. Following treatment, cells were washed, resuspended in 100 μL of sterile saline and viability was determined using the CellTiter-Flour Cell Viability Assay (Promega) following the manufacturer's instructions. Viability assays were performed in triplicate with a minimum of 3 replicates. Viability was reported as the percentage of viable cells relative to untreated controls.
(§3) Human dermal fibroblasts and osteoblasts (PromoCell, Heidelberg, Germany) were maintained in Dulbecco's Modified Eagle Medium (DMEM; Invitrogen, Grand Island, N.Y.) supplemented with 10% Fetal Bovine Serum (FBS) and 1× penicillin/streptomycin at 37° C. in 5% CO2. Prior to each assay, cells were seeded at 100% confluence in black-clear bottom 96-well plates. After 24 h cells were exposed to media containing D-AA (1 nM-50 mM) and incubated for 24 h. Following treatment, cells were washed, re-suspended in 100 μL of sterile saline, and assessed for viability using the CellTiter-Fluor Cell Viability Assay (Promega, Madison, Wis.) following the manufacturer's instructions. Viability assays were performed in triplicate with a minimum of four replicates. Viability was reported as the percentage of viable cells relative to untreated controls.

[5] = Release of D-AAs from PUR scaffolds in PBS (HPLC); assay type: physicochemical; details: for burst release: day 1, PUR scaffold with 10 wt % 1:1:1 D-Met:D-Pro:D-Trp; for b parameter of Weibull model: fit of D-AA release data
Procedure: Also, kinetic release assays were performed on the PUR scaffolds by incorporating 10 wt % of a 1:1:1 mixture of D-Tr:D-Pro:D-Met incubated in PBS for up to 8 weeks. The medium was be sampled twice weekly and analyzed for D-AAs by HPLC.
PUR scaffolds incorporating 10 wt % of a 1:1:1 mixture of D-Met:D-Pro:D-Trp were incubated in PBS at 37° C. under static conditions for up to 8 weeks. This mixture was evaluated in vitro, in vivo and in the release kinetics tests to account for potential interactions between D-AAs during release. The medium was sampled on days 1, 2, 4, 7, 10, 14, 21, and 28 and analyzed for D-AAs by HPLC using a system equipped with a Waters 1525 binary pump and a 2487 Dual-Absorbance Detector at 200 nm. Samples of released D-AAs were eluted through an Atlantis HILIC Silica column (5 μm particle size, 4.6 mm diameter×250 mm length) using an isocratic mobile phase flowing at 1 mL/min. The mobile phase contained 2.5 mM potassium dihydrogen phosphate with pH=2.85 (A) and Acetonitrile (B) at a ratio of A25:B75. The column oven temperature was maintained at 30° C. Sample concentration was determined in reference to an external standard curve using the Waters Breeze system. Standard curves were prepared in the following concentration ranges: (1) 7.8 μg/mL to 1 mg/mL for D-Met and D-Pro and (2) […] to 100 μg/mL for D-Trp.

[6] = system: S. aureus clinical isolate biofilms; assay: Biofilm dispersal and prevention, crystal violet 96-well assay (Example 1); assay type: cell-based, Staphylococcus aureus; details: 5 mM; for biofilm dispersal against panel of clinical isolates (biofilm biomass OD570): S. aureus clinical isolates, FIGS. 3A, 3C; for biofilm dispersal in pre-screening of eight D-AAs: pre-formed S. aureus biofilms, FIG. 1
Procedure: as §1

[7] = system: S. aureus clinical isolates biofilms; assay: Biofilm dispersal and prevention, crystal violet assay (Example 3); assay type: cell-based; details: for dispersal of established biofilms (biofilm biomass): panel of clinical isolates of methicillin-resistant S. aureus (n=5), 5 mM, 24 h, FIGS. 8A, 8C; for biofilm dispersal in pre-screening of eight individual D-AAs: pre-formed biofilms of four clinical isolates, 0.001-50 mM, FIG. 7
Procedure: Like in Example 1, biofilm formation was assessed under static conditions using polystyrene 96-well plates (Corning, Inc.). Overnight bacterial cultures were diluted to an OD600 of 0.1 in TSB (˜10^7 CFU/mL), and 20 μL were added to individual wells filled with 180 μL of media and incubated at 37° C. for 48 h. To assess the biofilm dispersal activity of D-AAs, the culture medium from biofilms was removed after 48 h and 200 μL fresh medium containing either an individual D-AA or an equimolar mixture of D-AAs (1:1:1: D-Met:D-Pro:D-Trp) were added at the indicated concentrations. After treatment with D-AA(s) for 24 h, plates were gently washed with 1× phosphate buffered saline (PBS) to remove unattached cells, stained with 0.1% (w/v) crystal violet (Sigma Aldrich) for 10 min, rinsed with PBS, and then solubilized with 80% (v/v) ethanol. Biofilm biomass was determined by measuring the absorbance of solubilized stain at 570 nm using a microtiter plate reader. For assays measuring the ability of D-AA to block biofilm formation, cells were grown under biofilm conditions as above in the presence of media containing D-AAs. Representative images of the plates of CV-stained biofilms following treatment with D-AA prior to solubilization were taken using a digital camera. All assays were repeated in triplicate with a minimum of four technical replicates.

[8] = Release of D-Trp from collagen gel; assay type: physicochemical; details: collagen gel with 5% D-Trp
[9] = system: S. aureus Xen 36A; assay: Contaminated 6-mm excisional cutaneous wounds in mice; assay type: in vivo, C57BL/6 mice; details: 2×10^6 CFU, collagen gel with 5% D-Trp, 1 and 3 days, not shown
Procedure: 6-mm excisional wounds in C57BL/6 mice (6-8 weeks), which had previously been shaved and sterilized, were made. The mice were contaminated with 2×10^6 or 2×10^7 CFU S. aureus Xen 36A (Perkin Elmer, Waltham, Mass.). Approximately 2-3 minutes following exposure to bacteria, collagen gels (hydrogel, HG) with and without 5% D-Trp were applied to the wounds for about 5 minutes before applying a Tegaderm bandage (3M, St. Paul, Minn.). Wounds were monitored daily for up to 3 days. At 1 and 3 days post-infection mice were evaluated using the IVIS (to visualized bioluminescent bacteria within wounds) and the wound tissues were harvested, homogenized, and plated on blood agar to enumerate bacteria within wound (CFU/mL/g tissue).

[10] = system: human osteoblasts; assay: CellTiter-Fluor cell viability assay; assay type: cell-based; details: 24 h
Procedure: as §2, §3

[11] = P. aeruginosa 418, read-out: Planktonic (MIC) 418
[12] = P. aeruginosa 18189, read-out: Planktonic (MIC) 18189
[13] = PUR scaffold with 10 wt % D-AA mixture, PBS 37° C.

Structure (SMILES) | Biofilm (MBIC) 418 [1] [µg/mL] | Biofilm (MBIC) 18189 [1] [µg/mL] | Planktonic (MIC) 418 ([2]; P. aeruginosa 418) [µg/mL] | Planktonic (MIC) 18189 ([2]; P. aeruginosa 18189) [µg/mL] | MIC [2, 11] [µg/mL] | MIC [2, 12] [µg/mL] | biofilm dispersal against panel of clinical isolates (biofilm biomass OD570) [3] | biofilm dispersal in pre-screening of eight D-AAs [3] | burst release ([5]; PBS 37° C.) [%] | b parameter of Weibull model [5] | biofilm dispersal against panel of clinical isolates (biofilm biomass OD570) [6] | biofilm dispersal in pre-screening of eight D-AAs [6] | dispersal of established biofilms (biofilm biomass) [7] | biofilm dispersal in pre-screening of eight individual D-AAs [7] | other results
NCC[C@H](O)C(=O)N[C@@H]1C[C@H](N)[C@@H](O[C@H]2O[C@H](CN)[C@@H](O)[C@H](O)[C@H]2O)[C@H](O)[C@H]1O[C@H]1O[C@H](CO)[C@@H](O)[C@H](N)[C@H]1O [AMK, Amikacin] | >256 | >256 | 16 | 16 | 16 (≈ 27.3 µM) | 16 (≈ 27.3 µM) | – | – | – | – | – | – | – | – | –
CSCC[C@@H](N)C(=O)O [D-Met, D-methionine] | – | – | – | – | – | – | capable of significantly dispersing biofilm formation | relatively more effective at dispersing biofilms | 60 | 0.56 | capable of significantly dispersing biofilm formation | relatively more effective at dispersing biofilms | effective at dispersing established biofilms | effective at dispersing biofilms | cytotoxicity ([4]; human fibroblasts, higher concentrations): cytotoxicity was also observed; cumulative release by day 14 [5, 13]: ~100%
N[C@H](Cc1c[nH]c2ccccc12)C(=O)O [D-Trp, D-tryptophan] | – | – | – | – | – | – | capable of significantly dispersing biofilm formation | relatively more effective at dispersing biofilms | 25 | 0.21 | capable of significantly dispersing biofilm formation | relatively more effective at dispersing biofilms | effective at dispersing established biofilms | effective at dispersing biofilms | release in 1 day [8]: about 80%; time to complete release [8]: ≤ 3 days; wound contamination (bioluminescence imaging and bacterial counts) [9]: reduced contamination; cytotoxicity ([4]; dermal fibroblasts, 50 and 25 mM, 24 h): toxic; viability (percentage of viable cells relative to untreated controls) ([4]; dermal fibroblasts, concentrations exceeding 12.5 mM, 24 h): ~60%; cytotoxicity ([4]; dermal fibroblasts, effective range 1-5 mM, 24 h): minimal cytotoxicity; cytotoxicity ([10]; 50 and 25 mM): toxic; viability (percentage of viable cells relative to untreated controls) ([10]; concentrations exceeding 12.5 mM): ~60%; cytotoxicity ([10]; effective range 1-5 mM): minimal cytotoxicity; fraction released at 4 weeks ([5]; PUR scaffold with 10 wt % D-AA mixture): less than 40%; cumulative release by day 28 [5, 13]: 44%
C[C@@H](O)[C@H]1C(=O)N2C(C(=O)O)=C(SCCN=CN)C[C@H]12 [IMI, Imipenem] | >128 | >128 | 64 | 128 | 128 (≈ 428 µM) | 64 (≈ 214 µM) | – | – | – | – | – | – | – | – | –
